Where two headings read alike, the source gives them in different places.
Experiments:
Kv11.1 (hERG) = Kv11.1 (hERG) (Homo sapiens (Human), UniProt Q12809); test: Kv11.1 (hERG) ion channel activity (patch clamp assay), HEK293 cells transfected with hERG gene; settings: patch clamp, HEK293 transfected with hERG gene
DNA-PK = DNA-PK (Homo sapiens (Human), UniProt P78527); test: DNA-PK assay (biochemical), flashplate 33P-ATP kinase assay; settings: enzymatic; 5 μM ATP
Outline: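 Reactions ran in streptavidin-coated flashplates and were halted by 200 mM EDTA, with a further 30 min at room temperature before saline washing.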

[1] = target: DNA-PK phosphorylation at serine 2056 (Homo sapiens (Human), UniProt P78527); test: DNA-PK phosphorylation at serine 2056 (cellular), bleomycin-treated HCT116 cells, ELISA; assay type: cell-based; settings: cellular; HCT116 cells, 10 μM bleomycin, six hours; read-out: IC50 pDNA-PK
Outline: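 HCT116, MEM alpha + 10% FCS, 37 °C/10% CO2, seeded o/n. Cpd + 10 μM bleomycin, 6 h. ELISA, chemiluminescence; phospho/total DNA-PKcs ratio, DMSO = blank.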

Kv11.1 (hERG), sequence (Q12809 whole entry): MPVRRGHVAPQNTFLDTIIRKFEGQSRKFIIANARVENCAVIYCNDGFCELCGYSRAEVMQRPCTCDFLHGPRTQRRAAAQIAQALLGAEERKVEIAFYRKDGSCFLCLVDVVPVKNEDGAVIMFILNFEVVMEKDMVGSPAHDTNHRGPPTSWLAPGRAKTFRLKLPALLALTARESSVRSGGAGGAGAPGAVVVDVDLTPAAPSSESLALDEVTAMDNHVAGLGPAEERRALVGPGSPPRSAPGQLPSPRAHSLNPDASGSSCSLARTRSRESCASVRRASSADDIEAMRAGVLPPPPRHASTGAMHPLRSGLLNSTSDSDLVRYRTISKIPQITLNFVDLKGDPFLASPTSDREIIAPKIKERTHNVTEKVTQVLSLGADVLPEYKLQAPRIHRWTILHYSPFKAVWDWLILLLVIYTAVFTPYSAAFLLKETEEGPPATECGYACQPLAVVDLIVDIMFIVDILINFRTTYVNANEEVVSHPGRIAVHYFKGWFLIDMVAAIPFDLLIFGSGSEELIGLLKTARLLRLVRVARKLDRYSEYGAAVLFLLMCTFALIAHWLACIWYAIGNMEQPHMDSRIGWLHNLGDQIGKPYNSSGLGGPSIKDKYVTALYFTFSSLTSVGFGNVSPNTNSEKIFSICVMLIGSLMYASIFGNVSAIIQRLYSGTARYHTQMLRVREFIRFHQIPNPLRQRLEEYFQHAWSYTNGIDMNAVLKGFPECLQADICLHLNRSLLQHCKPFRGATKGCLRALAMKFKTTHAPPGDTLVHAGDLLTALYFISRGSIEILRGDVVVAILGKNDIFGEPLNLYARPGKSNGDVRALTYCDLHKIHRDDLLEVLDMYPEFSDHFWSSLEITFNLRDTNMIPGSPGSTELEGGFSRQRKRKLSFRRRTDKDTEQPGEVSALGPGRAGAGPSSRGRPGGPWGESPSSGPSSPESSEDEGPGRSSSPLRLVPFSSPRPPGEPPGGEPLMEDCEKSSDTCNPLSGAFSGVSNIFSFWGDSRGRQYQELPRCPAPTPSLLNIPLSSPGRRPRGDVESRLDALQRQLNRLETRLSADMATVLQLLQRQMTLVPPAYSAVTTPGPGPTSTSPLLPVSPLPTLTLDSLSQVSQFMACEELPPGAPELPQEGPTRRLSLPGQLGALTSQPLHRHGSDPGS

IC50 (DNA-PK) [µM]	IC50 [1] [µM]	SMILES	Ki (Kv11.1 (hERG); read-out: Ki [Kv1.11 hERG]) [µM]	Ki (Kv11.1 (hERG); Ki [Kv1.11 hERG]) [µM]
0.007 to 0.03	10 to 30	COc1cnc(C(O)c2ccc(F)c(-c3ncnc4cc(N5CCOCC5)ccc34)c2)nc1 (stereo not drawn) [Example 66, [4-Fluoro-3-(7-morpholin-4-yl-quinazolin-4-yl)phenyl]-(5-methoxypyrimidin-2-yl)methanol]	> 25	
0.007 to 0.03	5 to 10	COc1cnc(C(O)c2ccc(F)c(-c3ncnc4cc(N5CCOCC5)ccc34)c2)nc1 (stereo not drawn) [Example 67, [4-Fluoro-3-(7-morpholin-4-yl-quinazolin-4-yl)phenyl]-(5-methoxypyrimidin-2-yl)methanol]	> 25	
0.003 to 0.007	5 to 10	CN(C)c1ccc(C(O)c2ccc(F)c(-c3ncnc4cc(N5CCOCC5)ccc34)c2)nn1 (stereo not drawn) [Example 68, (6-Dimethylamino-pyridazin-3-yl)-[4-fluoro-3-(7-morpholin-4-yl-quinazolin-4-yl)phenyl]-methanol]	> 25	
0.003 to 0.007	5 to 10	COc1cnc(C(O)c2ccc(F)c(-c3ncnc4cc(N5CCOCC5)ccc34)c2)nc1 (stereo not drawn) [Example 69, [4-Fluoro-3-(7-morpholin-4-yl-quinazolin-4-yl)phenyl]-(5-methoxypyrimidin-2-yl)methanol]	> 25	
0.003 to 0.007	0.5 to 5	Cc1ccc(C(O)c2ccc(F)c(-c3ncnc4cc(N5CCOCC5)ccc34)c2)nn1 (stereo not drawn) [Example 70, [4-Fluoro-3-(7-morpholin-4-yl-quinazolin-4-yl)phenyl]-(6-methylpyridazin-3-yl)methanol]	> 25	
< 0.003	0.5 to 5	COc1ccc([C@H](O)c2ccc(F)c(-c3ncnc4cc(N5CCOCC5)ccc34)c2)nn1 [Example 71, (R)-[4-Fluoro-3-(7-morpholin-4-yl-quinazolin-4-yl)phenyl]-(6-methoxypyridazin-3-yl)methanol]	> 25	
< 0.003	0.5 to 5	COc1ccc([C@@H](O)c2ccc(F)c(-c3ncnc4cc(N5CCOCC5)ccc34)c2)nn1 [Example 72, (S)-[4-Fluoro-3-(7-morpholin-4-yl-quinazolin-4-yl)phenyl]-(6-methoxypyridazin-3-yl)methanol]	> 25	
0.003 to 0.007	0.5 to 5	COc1ccc(C(OC)c2ccc(F)c(-c3ncnc4cc(N5CCOCC5)ccc34)c2)nn1 (stereo not drawn) [Example 73, 4-{2-Fluoro-5-[methoxy-(6-methoxy-pyridazin-3-yl)methyl]phenyl}-7-morpholin-4-yl-quinazoline]	> 25	
< 0.003	< 0.5	COc1ccc(C(O)c2ccc(F)c(-c3ncnc4cc(N5CCOCC5)ccc34)c2)nn1 (stereo not drawn) [Example 74, [4-Fluoro-3-(7-morpholin-4-yl-quinazolin-4-yl)phenyl]-(6-methoxypyridazin-3-yl)methanol]	> 25	
< 0.003	0.5 to 5	O=c1ccc(C(O)c2ccc(F)c(-c3ncnc4cc(N5CCOCC5)ccc34)c2)n[nH]1 (stereo not drawn) [Example 76, 6-{[4-Fluoro-3-(7-morpholin-4-yl-quinazolin-4-yl)phenyl]-hydroxymethyl}-2H-pyridazin-3-one]	> 25	
0.003 to 0.007	< 0.5	OC(c1ccc(F)c(-c2ncnc3cc(N4CCOCC4)ccc23)c1)c1c(F)cncc1Cl (stereo not drawn) [Example 77, (3-Chloro-5-fluoro-pyridin-4-yl)-[4-fluoro-3-(7-morpholin-4-yl-quinazolin-4-yl)phenyl]-methanol]		10 to 15
> 0.03	5 to 10	CCOc1cnnc(C(O)c2ccc(F)c(-c3ncnc4cc(N5CCOCC5)ccc34)c2)c1 (stereo not drawn) [Example 79, (5-Ethoxypyridazin-3-yl)-[4-fluoro-3-(7-morpholin-4-yl-quinazolin-4-yl)phenyl]-methanol]		15 to 25

SMILES	IC50 (DNA-PK) [µM]	IC50 [1] [µM]	Ki (Kv11.1 (hERG); read-out: Ki [Kv1.11 hERG]) [µM]	Ki (Kv11.1 (hERG); Ki [Kv1.11 hERG]) [µM]
Cc1nccnc1C(O)c1ccc(F)c(-c2ncnc3cc(N4CCOCC4)ccc23)c1 (stereo not drawn) [Example 78, [4-Fluoro-3-(7-morpholin-4-yl-quinazolin-4-yl)phenyl]-(3-methylpyrazin-2-yl)-methanol]	0.003 to 0.007	< 0.5		15 to 25

Source: patent US9732094B2, “Arylquinazolines” (Merck Patent GmbH, priority 2013, dated 2017)
